Laboratory results taken from patent US20150065472A1, “INTRAUTERINE APPLICATION OF 18-METHYL-15SS,16SS-METHYLENE-19-NOR-20-SPIROX-4-EN-3-ONE SYSTEMS, INTRAUTERINE SYSTEMS CONTAINING 18-METHYL-15SS,16SS-METHYLENE-19-NOR-20-SPIROX-4-EN-3-ONE, AS WELL AS THE USE THEREOF IN CONTRACEPTION AND GYNAECOLOGICAL THERAPY” (BAYER PHARMA AKTIENGESELLSCHAFT, priority 2012, published 2015).

How the values were obtained:
[1] = Break-down in vivo in animal species; conditions: all animal species studied in vivo
[2] = In-vitro break-down (liver) for humans; assay type: in vitro ADME; conditions: human liver in vitro
[3] = system: uterus of ovary-resected rats; experiment: Uterine weight gain after implantation of progestin-containing IUS (rod) in ovary-resected rats; assay type: in vivo, rat; conditions: ovary-resected E2-treated rats, IUS (rod) in right uterine horn, FIG. 1/4
Procedure: (§1) The local uterine action of the progestin compared to systemic side effects (dissociation) was investigated on the basis of studies using rats. The uterus of ovary-resected rats responds to implantation of progestin-containing IUS (rods) with decidualization and weight gain. The local progestin effects were also determined on the basis of changes in gene expression.
(§2) Ovary-resected female rats were treated with estradiol (E2) for three days (0.2 μg/day/animal, subcutaneous dosing). On day 4, an IUS (rod) was implanted into the right uterine horn of each animal. The left uterine horn remained untreated for internal comparison. Administration of E2 was continued with a daily dose of 0.1 μg/animal to ensure responsiveness of the uterus (maintaining progesterone-receptor expression) to progestins. Blood was taken for LH level measurements on days 4, 10 and 17.

[4] = system: serum LH level of ovary-resected rats; experiment: Serum luteinizing hormone (LH) level in ovary-resected rats carrying IUS (rod); assay type: in vivo, rat; conditions: FIG. 2/4
Procedure: Serum levels of luteinizing hormone (LH) are used for detecting systemic effects of the locally administered progestin. Basal serum-LH levels of ovary-resected rats are elevated compared to the levels of intact control animals. Undesired systemic efficacy of the uterine-administered progestin can be detected by a decrease in the LH level.
as §2

[5] = In-vitro metabolic studies (liver); assay type: in vitro ADME; conditions: all in-vitro metabolic studies (liver)
[6] = biological target: T1, human androgen receptor (hAR) (Homo sapiens, UniProt P10275); experiment: hAR transactivation in PC3 cells stably transfected with hAR and MTV-luc reporter gene; assay type: cell-based; conditions: MTV-luc reporter
T1 construct: expressed in transfected cells; host or cells: PC3 (human prostate carcinoma) cells, stably transfected with hAR and MTV-luc reporter
T1 sequence (P10275 1-920): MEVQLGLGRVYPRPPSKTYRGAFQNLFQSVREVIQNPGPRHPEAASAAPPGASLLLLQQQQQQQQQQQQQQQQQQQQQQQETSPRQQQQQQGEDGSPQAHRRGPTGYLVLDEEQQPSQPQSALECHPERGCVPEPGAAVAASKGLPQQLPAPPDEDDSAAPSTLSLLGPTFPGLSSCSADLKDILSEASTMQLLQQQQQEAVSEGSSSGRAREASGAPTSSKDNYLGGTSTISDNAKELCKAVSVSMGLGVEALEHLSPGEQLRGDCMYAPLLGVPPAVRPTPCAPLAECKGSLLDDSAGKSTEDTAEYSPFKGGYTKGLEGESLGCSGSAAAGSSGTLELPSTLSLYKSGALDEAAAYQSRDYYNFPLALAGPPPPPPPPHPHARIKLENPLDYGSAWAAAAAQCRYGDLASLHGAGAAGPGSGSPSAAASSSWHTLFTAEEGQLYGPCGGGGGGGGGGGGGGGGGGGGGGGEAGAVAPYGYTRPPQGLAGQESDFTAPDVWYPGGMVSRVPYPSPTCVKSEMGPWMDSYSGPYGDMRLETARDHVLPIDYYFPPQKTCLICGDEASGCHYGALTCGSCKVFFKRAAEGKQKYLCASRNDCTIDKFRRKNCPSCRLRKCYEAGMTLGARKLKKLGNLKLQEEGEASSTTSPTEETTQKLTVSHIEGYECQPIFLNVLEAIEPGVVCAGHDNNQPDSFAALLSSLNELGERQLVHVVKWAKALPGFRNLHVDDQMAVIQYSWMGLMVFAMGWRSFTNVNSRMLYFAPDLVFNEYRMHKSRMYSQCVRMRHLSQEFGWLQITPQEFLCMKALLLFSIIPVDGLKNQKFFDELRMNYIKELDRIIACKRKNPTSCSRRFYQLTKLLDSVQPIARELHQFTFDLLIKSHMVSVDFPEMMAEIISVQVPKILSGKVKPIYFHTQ
Text: The action on the human androgen receptor (hAR) was studied by means of transactivation analyses. For this, different concentrations of the test substances were to cells with stable expression of the human androgen receptor, and activation of the androgen receptor can be detected via a reporter gene.
For transactivation studies, PC3 (human prostate carcinoma) cells which have been stably transfected with hAR and the MTV-luc reporter gene were used. The culture medium used was RPM! medium (without L-glutamine; without Phenol Red) #E15-49 PAA L-glutamine 200 mM #25030-024 Gibco BRL 100 U/100 μg/ml penicillin/streptomycin Gibco # 15140-122, with 10% foetal calf serum (FCS). The cells were cultured at 37° C. and 5% CO2. The test medium corresponded to the culture medium, except that 10% FCS was replaced with 5% activated carbon-treated FCS (CCS). Cells were seeded in wells of a 96 well plate (“CulturPlate” from Packard #6005180) with 2×10^4 cells/well/200 μl of test medium. The cells were incubated with different concentrations of the test substances, and 80 μl of substrate were measured using the “steadylite HTS Reporter Gene Assay System” from Perkin Elmer.

IGFBP-1 gene expression = experiment: Gene expression analysis in rat uterine tissue after IUS (rod) administration; assay type: in vivo; conditions: rat uterus, FIG. 3/4
Procedure: as §1
as §2, with “17. […]” for “17.”
Gene expression analysis was carried out with from 50 ng to 200 ng of cDNA per reaction on an SDS7900HT Real.time PCR system (Applied Biosystems, Carlsbad, USA) using TaqMan probes (Applied Biosystems; IGFBP-1 Rn00565713_m1, Cyp26a1 Rn00590308_m1, PPIA Rn00690933_m1) and the Fast Blue qPCR MasterMix Plus (Eurogentec, Liège, Belgium; #RT-QP2X-03+FB). For relative quantification, cyclophilin A (PPIA) was used as an endogenous control. Relative expression levels were calculated according to the comparative delta delta CT method.

CC[C@]12CCC3C4CCC(=O)C=C4[C@H]4C[C@H]4C3C1[C@@H]1C[C@@H]1[C@@]21CCCO1 (stereo partly drawn) [compound B, 18-methyl-6α,7α,15β,16β-dimethylene-19-nor-20-spirox-4-en-3-one]
break-down rate in vivo [1]: very fast | break-down rates in vitro (liver) for humans [2]: very rapid | local efficacy by way of weight gain in the IUS-carrying uterine horn [3]: dose-dependent local efficacy | LH decrease (systemic side effect) ([4]; compound B release range tested 1-45 μg/animal and day): no LH decrease | break-down rate in in-vitro metabolic studies (liver) [5]: very fast | EC50 [6]: 0.056 µM

CC[C@]12CCC3C4CCC(=O)C=C4CCC3C1[C@@H]1C[C@@H]1[C@@]21CCCO1 (stereo partly drawn) [compound A, 18-methyl-15β,16β-methylene-19-nor-20-spirox-4-en-3-one]
break-down rate in vivo [1]: very fast | break-down rates in vitro (liver) for humans [2]: very rapid | rate of release from the IUS at which IGFBP-1 gene expression is induced, lower than with levonorgestrel (IGFBP-1 gene expression): approx. 7 × | local efficacy by way of weight gain in the IUS-carrying uterine horn [3]: dose-dependent local efficacy | LH decrease (systemic side effect) ([4]; 10 μg/animal and day dose of compound A): exception | LH decrease (systemic side effect) ([4]; compound A release range tested 0.6-10 μg per animal and day (except the 10 μg dose)): no LH decrease | break-down rate in in-vitro metabolic studies (liver) [5]: very fast | EC50 [6]: 0.0069 µM
